In patent US11857663B2, “Stable silk protein fragment compositions” (Evolved By Nature, Inc., priority 2013, dated 2024):

Test: HPLC chromatograms of samples comprising vitamin C (degradation products)
Type: physicochemical
Settings: after 1 hour at ambient conditions without chemical stabilization
Protocol: FIGS. 36A and 36B show two HPLC chromatograms from samples comprising vitamin C. […] No degradation products were visible. FIG. 59 is a table summarizing the vitamin C concentration in silk protein fragment-films (2% silk films air dried at RT) of the present disclosure. In FIG. 59 processing conditions included 100° C. extraction for 20 min, RT rinse, LiBr in 60° C. oven for 4-6 hours. FIG. 60 is arable summarizing the stability of vitamin C in chemically stabilized solutions. FIGS. 89A-89B are tables summarizing vitamin C stability in SPF gels without chemical stabilizers as compared to chemically stabilized vitamin C in competitive anti-aging skincare products. […] Without wishing to be bound by theory, it appears there is a relationship between vitamin C concentration, silk concentration, and gelation. An increase in vitamin C at a given concentration of silk will result in a longer time to gelation or inhibit gelation. This may be due to the vitamin C molecule physically blocking interaction between silk protein fragments or cross-linking of silk protein.

degradation products of vitamin C: degradation products are visible
Structure (SMILES): O=C1O[C@H]([C@@H](O)CO)C(O)=C1O [vitamin C, L-ascorbic acid]
